Here are results for eleven molecules from US8115005B2, “Pyrazolylphenyl and pyrrolylphenyl inhibitors of LTA4H for treating inflammation” (Decode Genetics EHF., priority 2006, dated 2012).

Structures can show the parent of a compound that is named as a salt.

One may read the IC50 as the concentration at which inhibition is half-maximal.

The first assay relates to colitis symptoms.
Assay: not given
The settings on record: eight weeks of treatment, primate model of spontaneous colitis; cited from earlier work.
In the case of `CN(CCCOc1ccc(Cc2ccccc2)cc1)CCC(=O)O.Cl` [SC57461], the colitis symptoms entry is given as “significantly improved colitis symptoms”.

The target in the next assay is T1, recombinant human LTA4 hydrolase (Homo sapiens, UniProt P09960).
T1 construct: A human LTA4 hydrolase full-length cDNA clone (NM_000895) was purchased from OriGene Technologies; own knowledge that pDEST17 adds an N-terminal 6xHis, consistent with the Ni-NTA purification) (N); made in house; host or cells: Escherichia coli BL21-AI
T1 sequence (P09960 1-611): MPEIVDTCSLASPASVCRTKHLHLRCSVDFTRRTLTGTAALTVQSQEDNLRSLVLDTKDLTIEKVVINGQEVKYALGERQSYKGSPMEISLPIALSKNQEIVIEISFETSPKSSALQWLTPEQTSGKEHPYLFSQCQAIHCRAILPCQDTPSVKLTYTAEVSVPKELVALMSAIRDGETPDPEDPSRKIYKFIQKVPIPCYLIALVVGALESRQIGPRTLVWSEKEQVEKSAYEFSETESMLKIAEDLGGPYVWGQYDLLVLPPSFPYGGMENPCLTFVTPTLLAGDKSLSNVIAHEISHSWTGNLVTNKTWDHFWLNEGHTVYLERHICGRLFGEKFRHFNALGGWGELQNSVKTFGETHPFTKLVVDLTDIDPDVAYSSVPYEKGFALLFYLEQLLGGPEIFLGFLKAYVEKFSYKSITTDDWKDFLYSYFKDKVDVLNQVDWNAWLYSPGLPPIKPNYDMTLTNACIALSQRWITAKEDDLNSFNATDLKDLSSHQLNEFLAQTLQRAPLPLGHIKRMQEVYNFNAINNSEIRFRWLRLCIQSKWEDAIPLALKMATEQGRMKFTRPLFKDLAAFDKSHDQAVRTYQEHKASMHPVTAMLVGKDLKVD
As to the kind of experiment: In vitro assay testing inhibitory activity against purified recombinant human LTA4 hydrolase. The format is biochemical. The following applies: LTB4 formation; table does not say which of the two described assays (enzyme or human whole blood). The text has this:
(1) In vitro assay testing inhibitory activity against purified recombinant human LTA4 hydroase. A human LTA4 hydrolase full-length cDNA clone (NM_000895) was purchased from OriGene Technologies (Rockville, Md.). The gene was amplified by polmerase chain reaction and transferred via pDONR201 into the bacterial expression vector pDEST17 by recombination (both plasmids from Invitrogen, Carlsbad, Calif.). The resulting construct was transformed into Escherichia coli BL21-AI (Invitrogen), and expression was induced by chemical induction with arabinose. The recombinant enzyme was purified by chromatography on an FPLC system (Amersham Biosciences, Uppsala, Sweden) using immobilized metal affinity chromatography (Ni-NTA Superflow, Qiagen, Hilden, Germany) and anion exchange chromatography (MonoQ HR 10/10, Amersham Biosciences).
The compounds of the invention were incubated in a series of dilutions with 200 nM of recombinant enzyme in assay buffer (100 mM Tris-HCl, 100 mM NaCl, 5 mg/ml fatty-acid free BSA, 10% DMSO, pH 8.0) for 10 min at room temperature to allow binding between LTA4 hydrolase and the inhibitors. LTA4 was prepared by alkaline hydrolysis of LTA4 methyl ester (Biomol, Plymouth Meeting, Pa., or Cayman Chemicals, Ann Arbor, Mich.). A solution of 10 μg of the ester was dried under a nitrogen stream and redissolved in 60 μl of a solution of 80% acetone and 20% 0.25 M NaOH. After incubation for 40 min at room temperature the resulting approximately 500 μM tock of LTA4 was kept at −80° C. for no more than a few days prior to use.
Immediately before the assay, LTA4 was diluted to a concentration of 10 μM in assay buffer (without DMSO) and added to the reaction mixture to a final concentration of 2 μM to initiate the enzyme reaction. After incubation for 120 sec at room temperature, the reaction was stopped by adding 2 volumes of chilled quenching buffer, containing acetonitril with 1% acetic acid and 225 nM LTB4-d4 (Biomol). The samples were then kept at 4° C. overnight to complete protein precipitation and centrifuged for 15 min at 1800 g. LTB4 formed was measured by LC-MS/MS using LTB4-d4 as an internal standard and an external LTB4 standard (Biomol) as reference. Based on the amounts of LTB4 found at each inhibitor concentration, a dose-response curve was fitted to the data and an IC50 value was calculated.
As to `O=Cc1cccn1-c1ccc(OCCN2CCCCC2)cc1` [Example 10, 1-[4-(2-Piperidin-1-yl-ethoxy)-phenyl]-1H-pyrrole-2-carbaldehyde], the IC50 is < 5 µM.

For the molecule `Brc1cccn1-c1ccc(OCCN2CCCCC2)cc1` [Example 9, 1-{2-[4-(2-Bromo-pyrrol-1-yl)-phenoxy]-ethyl}-piperidine], the IC50 is < 5 µM. The same measure, in the same setting: with `Cc1cc(C)n(-c2ccc(OCCN3CCCCC3)cc2)n1` [Example 3, 1-{2-[4-(3,5-Dimethyl-pyrazol-1-yl)-phenoxy]-ethyl}-piperidine] the figure was < 5 µM; with `c1ccn(-c2ccc(OC[C@H]3CCCN3)cc2)c1` [Example 7, 1-[4-((R)-1-Pyrrolidin-2-ylmethoxy)-phenyl]-1H-pyrrole hydrochloride], < 5 µM; with `Cc1c(C(F)F)cnn1-c1ccc(OCCN2CCCCC2)cc1` [Example 6, 1-{2-[4-(4-Difluoromethyl-5-methyl-pyrazol-1-yl)-phenoxy]-ethyl}-piperidine], 5 to 20 µM. On the same count and under the same terms, with `Cc1ccn(-c2ccc(OCCN3CCCCC3)cc2)n1` [Example 2, 1-{2-[4-(3-Methyl-pyrazol-1-yl)-phenoxy]-ethyl}-piperidine] the figure was 5 to 20 µM. Same read-out and setting: next, `c1cnn(-c2ccc(OCCN3CCCCC3)cc2)c1` [Example 1, 1-[2-(4-Pyrazol-1-yl-phenoxy)-ethyl]-piperidine]: 5 to 20 µM; `c1ccn(-c2ccc(OCCN3CCCCC3)cc2)c1` [Example 8, 1-[2-(4-Pyrrol-1-yl-phenoxy)-ethyl]-piperidine]: < 5 µM; `FC(F)(F)c1ccnn1-c1ccc(OCCN2CCCCC2)cc1` [Example 4, 1-{2-[4-(5-Trifluoromethyl-pyrazol-1-yl)-phenoxy]-ethyl}-piperidine]: 5 to 20 µM. As to `Cc1cc(C(F)(F)F)n(-c2ccc(OCCN3CCCCC3)cc2)n1` [Example 5, 1-{2-[4-(3-Methyl-5-trifluoromethyl-pyrazol-1-yl)-phenoxy]-ethyl}-piperidine], the IC50 is < 5 µM.

Another assay deals with T2, LTA4H (Mus musculus, UniProt P24527).
T2 construct: host or cells: mouse blood (ex vivo, after oral dosing)
T2 sequence (P24527 1-611): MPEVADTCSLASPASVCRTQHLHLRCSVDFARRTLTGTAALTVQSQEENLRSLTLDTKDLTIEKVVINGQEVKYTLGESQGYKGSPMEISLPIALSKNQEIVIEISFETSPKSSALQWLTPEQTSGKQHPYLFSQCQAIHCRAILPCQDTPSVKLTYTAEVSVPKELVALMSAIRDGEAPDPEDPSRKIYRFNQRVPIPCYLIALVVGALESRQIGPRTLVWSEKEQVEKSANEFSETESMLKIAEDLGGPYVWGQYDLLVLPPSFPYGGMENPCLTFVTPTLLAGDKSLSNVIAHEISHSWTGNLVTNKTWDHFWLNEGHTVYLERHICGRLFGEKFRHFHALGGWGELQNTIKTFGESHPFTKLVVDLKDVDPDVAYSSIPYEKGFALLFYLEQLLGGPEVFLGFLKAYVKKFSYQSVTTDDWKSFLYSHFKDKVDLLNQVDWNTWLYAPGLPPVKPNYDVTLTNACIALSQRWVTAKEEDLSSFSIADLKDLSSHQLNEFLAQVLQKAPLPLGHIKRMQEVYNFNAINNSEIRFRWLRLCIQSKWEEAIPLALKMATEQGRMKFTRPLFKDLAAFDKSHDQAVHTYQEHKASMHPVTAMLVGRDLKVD
Assay: not given
The settings on record: oral administration, mouse blood ex vivo; cited from earlier work.
Consider `CN(CCCOc1ccc(Cc2ccccc2)cc1)CCC(=O)O.Cl` [SC57461], for which the “inhibition of ionophore-induced LTB4 production” value is given as “inhibition of ionophore-induced LTB4 production”.

A further assay has as its target T3, LTA4H (Rattus norvegicus, UniProt P30349).
T3 construct: and in rat peritoneum in vivo; host or cells: rat peritoneum (in vivo, after oral dosing)
T3 sequence (P30349 1-611): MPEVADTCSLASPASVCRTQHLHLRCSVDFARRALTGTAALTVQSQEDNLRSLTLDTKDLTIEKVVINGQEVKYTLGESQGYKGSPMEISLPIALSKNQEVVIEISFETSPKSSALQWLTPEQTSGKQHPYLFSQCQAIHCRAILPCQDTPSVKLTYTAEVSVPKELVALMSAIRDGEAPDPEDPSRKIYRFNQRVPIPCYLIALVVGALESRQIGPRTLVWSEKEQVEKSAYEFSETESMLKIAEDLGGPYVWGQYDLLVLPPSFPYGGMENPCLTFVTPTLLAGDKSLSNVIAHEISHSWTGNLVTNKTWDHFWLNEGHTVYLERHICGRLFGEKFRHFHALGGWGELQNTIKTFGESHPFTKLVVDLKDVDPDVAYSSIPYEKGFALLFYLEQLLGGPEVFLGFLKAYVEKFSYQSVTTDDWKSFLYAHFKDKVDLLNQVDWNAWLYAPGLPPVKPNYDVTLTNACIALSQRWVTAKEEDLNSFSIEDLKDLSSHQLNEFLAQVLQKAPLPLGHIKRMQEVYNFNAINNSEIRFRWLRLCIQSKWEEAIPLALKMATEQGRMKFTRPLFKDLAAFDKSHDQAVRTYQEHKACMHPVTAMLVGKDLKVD
Assay: not given
The settings on record: oral administration, rat peritoneum in vivo; cited from earlier work.
Consider `CN(CCCOc1ccc(Cc2ccccc2)cc1)CCC(=O)O.Cl` [SC57461], for which the “inhibition of ionophore-induced LTB4 production” value was “inhibition of ionophore-induced LTB4 production”.
